One data set concerns Cryptococcus neoformans. Put plainly: Antifungal activity against Cryptococcus neoformans ATCC 90112 after 48 to 72 hrs by broth microdilution method. Format: functional.
The next data set deals with Candida albicans. Put plainly: Antifungal activity against Candida albicans ATCC 10231 after 48 to 72 hrs by broth microdilution method. Format: functional. In general terms: Broth dilution looks for growth in wells or tubes with falling amounts of substance.
Data set [1] is described as follows: Solubility at 50 uM. It counts as physicochemical.
Another data set concerns Pichia kudriavzevii. Put plainly: Antifungal activity against Candida krusei ATCC 6258 after 48 to 72 hrs by broth microdilution method. It counts as functional.
The next data set has as its system Candida parapsilosis. As to the kind of experiment: Antifungal activity against Candida parapsilosis ATCC 22019 after 48 to 72 hrs by broth microdilution method. Conditions: Lodderomyces parapsilosis. It counts as functional.
The test system of another data set is Nakaseomyces glabratus. As to the kind of experiment: Antifungal activity against Candida glabrata 04-202345 after 48 to 72 hrs by broth microdilution method. It counts as functional.
The next data set has as its system Aspergillus fumigatus. As to the kind of experiment: Antifungal activity against Aspergillus fumigatus ATCC 204305 after 48 to 72 hrs by broth microdilution method. Format: functional.
Another data set relates to Aspergillus flavus. As to the kind of experiment: Antifungal activity against Aspergillus flavus ATCC 204304 after 48 to 72 hrs by broth microdilution method. It counts as functional.
A further data set relates to Aspergillus terreus. Put plainly: Antifungal activity against Aspergillus terreus 05-202844 after 48 to 72 hrs by broth microdilution method. Format: functional.
A further data set has as its system Lomentospora prolificans. Put plainly: Antifungal activity against Scedosporium prolificans 05-203060 after 48 to 72 hrs by broth microdilution method. Format: functional.
A further data set relates to Scedosporium apiospermum. As to the kind of experiment: Antifungal activity against Scedosporium apiospermum 05-203100 after 48 to 72 hrs by broth microdilution method. It counts as functional.
The subject of the next data set is Rhizopus arrhizus. Put plainly: Antifungal activity against Rhizopus oryzae 05-203111 after 48 to 72 hrs by broth microdilution method. Format: functional.
Another data set concerns Exophiala spinifera. As to the kind of experiment: Antifungal activity against Exophiala spinifera 03-200803 after 48 to 72 hrs by broth microdilution method. Format: functional.
Another data set deals with Curvularia australiensis. As to the kind of experiment: Antifungal activity against Bipolaris australiensis 03-201798 after 48 to 72 hrs by broth microdilution method. Format: functional.
In data set [2] the target is Phospholipase A2, major isoenzyme (Sus scrofa, UniProt P00592). As to the kind of experiment: Inhibition of porcine pancreatic PLA2 after 1 hr by radiometric method.
Chain of Phospholipase A2, major isoenzyme (P00592 whole entry): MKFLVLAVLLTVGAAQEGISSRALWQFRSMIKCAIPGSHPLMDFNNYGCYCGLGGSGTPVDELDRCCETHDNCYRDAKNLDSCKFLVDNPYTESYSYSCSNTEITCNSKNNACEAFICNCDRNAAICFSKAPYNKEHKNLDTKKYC
Data set [3] in a line: Inhibition of phospholipid fatty acyl chain hydrolysis activity of Cryptococcus neoformans var. grubii H99 PLB assessed as formation of radiolabeled free fatty acid at pH 4 by radiometric assay.
A short description of data set [4]: Cytotoxicity against human erythrocytes assessed as hemolysis after 1 hr. It counts as cell-based, Erythrocyte.
A further data set has as its system A549. Put plainly: Cytotoxicity against human A549 cells after 3 hrs by MTS assay. It counts as cell-based. Conditions: A549, 3 h. A general note: Tetrazolium dyes change colour on reduction, which living cells bring about.
For a further data set, the system named is MDCK. Put plainly: Cytotoxicity against MDCK cells after 3 hrs by MTS assay. Conditions: Canis lupus familiaris. Format: cell-based.
Data set [5] can be described thus: Selectivity index, ratio of HC50 for human erythrocytes to MIC for Cryptococcus neoformans ATCC 90112. It counts as functional.
Data set [6] is described as follows: Selectivity index, ratio of HC50 for human erythrocytes to MIC for Candida albicans ATCC 10231. Format: functional.
The nature of data set [7]: Selectivity index, ratio of IC50 for human A549 cells to MIC for Cryptococcus neoformans ATCC 90112. It counts as functional.
The nature of data set [8]: Selectivity index, ratio of IC50 for human A549 cells to MIC for Candida albicans ATCC 10231. Format: functional.
Data set [9] is described as follows: Selectivity index, ratio of IC50 for MDCK cells to MIC for Cryptococcus neoformans ATCC 90112. It counts as functional.
Data set [10] can be described thus: Selectivity index, ratio of IC50 for MDCK cells to MIC for Candida albicans ATCC 10231. Format: functional.
The test system of data set [11] is Cryptococcus neoformans var. grubii H99. Put plainly: Inhibition of lysophospholipid fatty acyl chain hydrolysis activity of Cryptococcus neoformans var. grubii H99 PLB assessed as formation of radiolabeled free fatty acid at 0.25 to 250 uM at pH 4 by radiometric assay.
For data set [12] the test system is unchanged. Put plainly: Inhibition of lysophospholipase acyltransferase activity of Cryptococcus neoformans var. grubii H99 PLB assessed as formation of radiolabeled dipalmitoyl phosphatidylcholine at 0.25 to 250 uM at pH 4 by radiometric assay.
Setting [13] is: Cryptococcus neoformans, ATCC 90112, read-out: MIC.
Setting [14] is: Candida albicans, ATCC 10231, read-out: MIC.
The mark [15] stands for this setting: Cryptococcus neoformans, ATCC 90112.

The text below walks through data of ChEMBL document CHEMBL1152529, “Synthesis, antifungal, haemolytic and cytotoxic activities of a series of bis(alkylpyridinium)alkanes” (Bioorg Med Chem, 2009).

The structures appear in SMILES notation. In brackets after ≈: the same amount, converted by molar mass. Activity calls are given as the source filed them.

Usually MIC stands for the lowest concentration found to suppress growth. In general, MFC refers to the smallest concentration meeting the test's criterion for killing the fungus. Read a low MFC as more potent killing. In general, IC50 refers to the midpoint of a concentration-inhibition curve. The HC50 is the concentration that lyses half of the red blood cells.

With `CN1CCC[C@H]1c1ccc[n+](CCCCCCCCCCCC[n+]2cccc([C@@H]3CCCN3C)c2)c1.[Br-].[Br-]`, the MIC in the data set on Cryptococcus neoformans (setting [13]) and in the data set on Candida albicans (setting [14]) was above 50 µM throughout. In [1], the solubility entry was “Insoluble”.
In the case of `CCCCCc1cc[n+](CCCCCCCCCCCC[n+]2ccc(CCCCC)cc2)cc1.[Cl-].[Cl-]`, the minimum inhibitory concentration (MIC) against Cryptococcus neoformans came out at 1.4 µM; against Candida albicans, 2.7 µM; with Pichia kudriavzevii, 11 µM; against Candida parapsilosis it was 1.4 µM; against Nakaseomyces glabratus, 2.7 µM; in the data set on Aspergillus fumigatus, 87.5 µM. In addition, the minimal inhibitory concentration (MIC) came out at 44 µM in the data set on Aspergillus flavus; 11 µM with Aspergillus terreus; 2.7 µM in the data set on Lomentospora prolificans; 5.5 µM against Scedosporium apiospermum; 2.7 µM with Rhizopus arrhizus; 0.7 µM in the data set on Exophiala spinifera. In the data set on Curvularia australiensis, this compound displayed an MIC of 11 µM. The MFC with Cryptococcus neoformans (setting [15]) was 1.4 µM; against Candida albicans (Candida albicans, ATCC 10231) it was 2.7 µM; with Pichia kudriavzevii, 22 µM; in the data set with Candida parapsilosis, 2.7 µM; against Nakaseomyces glabratus it was 2.7 µM; in the data set on Aspergillus fumigatus, 87.5 µM. Also, the MFC was 87.5 µM against Aspergillus flavus; 22 µM against Aspergillus terreus; 5.5 µM in the data set on Lomentospora prolificans; 5.5 µM with Scedosporium apiospermum; 11 µM against Rhizopus arrhizus; 0.7 µM in the data set on Exophiala spinifera. In the data set with Curvularia australiensis, this compound returned an MFC of 11 µM. For the same compound, the IC50 in data set [2] was above 250 µM; in data set [3], 104 µM; in the data set on A549 it was 115 µM; in the data set with MDCK, 150 µM. Further, the concentration for 50% haemolysis (HC50) at 1 h in data set [4] is above 350 µM. Also, the “Selectivity Index” value in [5] is on record as above 100; in data set [6] it was above 100; in [7] it was above 40; in [8], above 40; in data set [9] it was above 40; in [10] it was above 40.
Take `C[C@@H]1[C@H](O)[C@@H](C)/C=C/C=C/C=C/C=C/C=C/C=C/C=C/[C@H](O[C@@H]2O[C@H](C)[C@@H](O)[C@H](N)[C@@H]2O)C[C@@H]2O[C@](O)(C[C@@H](O)C[C@@H](O)[C@H](O)CC[C@@H](O)C[C@@H](O)CC(=O)O[C@H]1C)C[C@H](O)[C@H]2C(=O)O` [AMPHOTERICIN B]: the MIC amounted to 0.54 µM (≈ 0.499 µg/mL) with Cryptococcus neoformans (setting [13]); 0.54 µM (≈ 0.499 µg/mL) with Candida albicans (setting [14]); 0.54 µM (≈ 0.499 µg/mL) against Pichia kudriavzevii; 0.13 µM (≈ 0.12 µg/mL) with Candida parapsilosis; 1.1 µM (≈ 1.02 µg/mL) in the data set with Nakaseomyces glabratus; 0.54 µM (≈ 0.499 µg/mL) in the data set with Aspergillus fumigatus. The MIC against Aspergillus flavus amounted to 0.54 µM (≈ 0.499 µg/mL); against Aspergillus terreus, 1.1 µM (≈ 1.02 µg/mL); against Lomentospora prolificans it was 4.3 µM (≈ 3.97 µg/mL); against Scedosporium apiospermum, 17 µM (≈ 15.7 µg/mL); in the data set with Rhizopus arrhizus it was 0.06 µM (≈ 0.0554 µg/mL); against Exophiala spinifera, 0.27 µM (≈ 0.25 µg/mL). In the data set with Curvularia australiensis, the MIC was determined as 0.03 µM (≈ 0.0277 µg/mL).
As for `CCCCCc1cc[n+](CCCCCCCCCCCC[n+]2ccc(CCCCC)c(CCCCC)c2)cc1CCCCC`, the minimal fungicidal concentration (MFC) in the data set on Cryptococcus neoformans (setting [15]) came to 1.4 µM; in the data set with Candida albicans (Candida albicans, ATCC 10231) it was 2.7 µM; against Pichia kudriavzevii, 2.7 µM; against Candida parapsilosis, 2.7 µM; against Nakaseomyces glabratus it was 1.4 µM; against Aspergillus fumigatus, 22 µM. In addition, the MFC in the data set on Aspergillus flavus worked out at 22 µM; in the data set on Aspergillus terreus, 2.7 µM; in the data set on Lomentospora prolificans, 5.5 µM; against Scedosporium apiospermum, 5.5 µM; with Rhizopus arrhizus, 2.7 µM; with Exophiala spinifera, 2.7 µM. This compound showed a minimal fungicidal concentration (MFC) against Curvularia australiensis of 2.7 µM. The MIC in the data set on Cryptococcus neoformans (setting [13]) came to 1.4 µM; in the data set on Candida albicans (setting [14]) it was 2.7 µM; against Pichia kudriavzevii, 2.7 µM; against Candida parapsilosis, 2.7 µM; in the data set with Nakaseomyces glabratus, 1.4 µM; against Aspergillus fumigatus, 11 µM. The MIC in the data set with Aspergillus flavus is 11 µM; with Aspergillus terreus, 1.4 µM; against Lomentospora prolificans, 2.7 µM; in the data set with Scedosporium apiospermum, 5.5 µM; in the data set on Rhizopus arrhizus it was 2.7 µM; in the data set on Exophiala spinifera, 2.7 µM. This compound had an MIC with Curvularia australiensis of 2.7 µM. Further, the 50% inhibitory concentration (IC50) came out at 52 µM in [2], 4 µM in data set [3], 45 µM in the data set with A549 and 70 µM in the data set with MDCK. Also, the result in data set [11] and in [12] was inactive. For the same compound, the HC50 at 1 h in data set [4] turned out to be 17.5 µM.
For `c1ccc(CCCc2cc[n+](CCCCCCCCCCCC[n+]3ccc(CCCc4ccccc4)cc3)cc2)cc1`, the MIC in the data set on Cryptococcus neoformans (setting [13]) and with Candida albicans (setting [14]) was 2.7 µM throughout. For the same compound, the 50% inhibitory concentration (IC50) in data set [2] was 104 µM; in data set [3], 5 µM; with A549, 55 µM; in the data set on MDCK, 65 µM. Further, the result in [11] and in data set [12] was inactive. The HC50 at 1 h in data set [4] turned out to be 67 µM.
